Results taken from the supplement of paper PMC4862054.

Test system: MCF-10A
Assay: normalised response (% of control), CellTiter-Glo; higher = more viable cells (100 = DMSO, 0 = benzethonium chloride kill control)
Conditions: incubation time: 72 h
Summary of the method: (§1)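 In 384-well plates holding compound at 5 concentrations in 10-fold steps over a 10,000-fold range specific to each compound, breast cancer cell lines were seeded as 20 µl suspension and incubated 72 h. CellTox Green fluorescence was measured at 485/520 nm, after which CellTiter-Glo luminescence was measured following 10 min at room temperature. Plate signals were normalised to 0.1 % DMSO (100) and a positive kill control (0), and each value is the normalised signal at a single concentration.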

Structure (SMILES)	normalised response
Cc1c(Cn2c(C)nc3c(C(=O)O)cc(N4CCOCC4)cc32)cccc1C(F)(F)F (1000 nM)	115%
CCCCC/C=C/C=C1/C(=O)C=C[C@@H]1C/C=C\CCCC(=O)O [15D-PGJ2] (80 nM)	111%
CS(=O)(=O)N1CCN(Cc2cc3nc(-c4cccc5[nH]ncc45)nc(N4CCOCC4)c3s2)CC1 [Pictilisib] (1000 nM)	38.4%
c1cc(CN2CCCNCCNCCCNCC2)ccc1CN1CCCNCCNCCCNCC1 [Plerixafor] (1000 nM)	81.8%
CC(C)N(CCCNC(=O)Nc1ccc(C(C)(C)C)cc1)C[C@H]1O[C@@H](n2cc(Br)c3c(N)ncnc32)[C@H](O)[C@@H]1O [SGC0946] (1 nM)	101%
CC(C)N(CCCNC(=O)Nc1ccc(C(C)(C)C)cc1)C[C@H]1O[C@@H](n2cc(Br)c3c(N)ncnc32)[C@H](O)[C@@H]1O [SGC0946] (10 nM)	97.4%
CC(C)N(CCCNC(=O)Nc1ccc(C(C)(C)C)cc1)C[C@H]1O[C@@H](n2cc(Br)c3c(N)ncnc32)[C@H](O)[C@@H]1O [SGC0946] (1000 nM)	97.9%
CNC(=O)c1cc(Oc2ccc(NC(=O)Nc3ccc(Cl)c(C(F)(F)F)c3)cc2)ccn1 [Sorafenib] (0.1 nM)	95.7%
CCN(CC)CCNC(=O)c1c(C)[nH]c(/C=C2\C(=O)Nc3ccc(F)cc32)c1C [Sunitinib] (0.1 nM)	99.3%
CCN(CC)CCNC(=O)c1c(C)[nH]c(/C=C2\C(=O)Nc3ccc(F)cc32)c1C [Sunitinib] (1 nM)	107%
CC[C@@]1(O)C(=O)OCc2c1cc1n(c2=O)Cc2cc3c(CN(C)C)c(O)ccc3nc2-1 [Topotecan] (1 nM)	97.3%

Test system: HCC1937
Assay: as above
Conditions: incubation time: 72 h
Summary of the method: as §1

Structure (SMILES)	normalised response
Cc1c(Cn2c(C)nc3c(C(=O)O)cc(N4CCOCC4)cc32)cccc1C(F)(F)F (1000 nM)	94.4%
CCCCC/C=C/C=C1/C(=O)C=C[C@@H]1C/C=C\CCCC(=O)O [15D-PGJ2] (80 nM)	99.1%
CS(=O)(=O)N1CCN(Cc2cc3nc(-c4cccc5[nH]ncc45)nc(N4CCOCC4)c3s2)CC1 [Pictilisib] (1000 nM)	73.9%
c1cc(CN2CCCNCCNCCCNCC2)ccc1CN1CCCNCCNCCCNCC1 [Plerixafor] (1000 nM)	101%
CC(C)N(CCCNC(=O)Nc1ccc(C(C)(C)C)cc1)C[C@H]1O[C@@H](n2cc(Br)c3c(N)ncnc32)[C@H](O)[C@@H]1O [SGC0946] (1 nM)	92.7%
CC(C)N(CCCNC(=O)Nc1ccc(C(C)(C)C)cc1)C[C@H]1O[C@@H](n2cc(Br)c3c(N)ncnc32)[C@H](O)[C@@H]1O [SGC0946] (10 nM)	89.6%
CC(C)N(CCCNC(=O)Nc1ccc(C(C)(C)C)cc1)C[C@H]1O[C@@H](n2cc(Br)c3c(N)ncnc32)[C@H](O)[C@@H]1O [SGC0946] (1000 nM)	97.3%
CNC(=O)c1cc(Oc2ccc(NC(=O)Nc3ccc(Cl)c(C(F)(F)F)c3)cc2)ccn1 [Sorafenib] (0.1 nM)	97.7%
CCN(CC)CCNC(=O)c1c(C)[nH]c(/C=C2\C(=O)Nc3ccc(F)cc32)c1C [Sunitinib] (0.1 nM)	95.8%
CCN(CC)CCNC(=O)c1c(C)[nH]c(/C=C2\C(=O)Nc3ccc(F)cc32)c1C [Sunitinib] (1 nM)	107%
CC[C@@]1(O)C(=O)OCc2c1cc1n(c2=O)Cc2cc3c(CN(C)C)c(O)ccc3nc2-1 [Topotecan] (1 nM)	97%

Test system: BT-474
Assay: as above
Conditions: incubation time: 72 h
Summary of the method: as §1

Structure (SMILES)	normalised response
Cc1c(Cn2c(C)nc3c(C(=O)O)cc(N4CCOCC4)cc32)cccc1C(F)(F)F (1000 nM)	96.2%
CCCCC/C=C/C=C1/C(=O)C=C[C@@H]1C/C=C\CCCC(=O)O [15D-PGJ2] (80 nM)	101%
CS(=O)(=O)N1CCN(Cc2cc3nc(-c4cccc5[nH]ncc45)nc(N4CCOCC4)c3s2)CC1 [Pictilisib] (1000 nM)	69.4%
c1cc(CN2CCCNCCNCCCNCC2)ccc1CN1CCCNCCNCCCNCC1 [Plerixafor] (1000 nM)	93.7%
CC(C)N(CCCNC(=O)Nc1ccc(C(C)(C)C)cc1)C[C@H]1O[C@@H](n2cc(Br)c3c(N)ncnc32)[C@H](O)[C@@H]1O [SGC0946] (1 nM)	93.8%
CC(C)N(CCCNC(=O)Nc1ccc(C(C)(C)C)cc1)C[C@H]1O[C@@H](n2cc(Br)c3c(N)ncnc32)[C@H](O)[C@@H]1O [SGC0946] (10 nM)	98.8%
CC(C)N(CCCNC(=O)Nc1ccc(C(C)(C)C)cc1)C[C@H]1O[C@@H](n2cc(Br)c3c(N)ncnc32)[C@H](O)[C@@H]1O [SGC0946] (1000 nM)	103%
CNC(=O)c1cc(Oc2ccc(NC(=O)Nc3ccc(Cl)c(C(F)(F)F)c3)cc2)ccn1 [Sorafenib] (0.1 nM)	105%
CCN(CC)CCNC(=O)c1c(C)[nH]c(/C=C2\C(=O)Nc3ccc(F)cc32)c1C [Sunitinib] (0.1 nM)	104%
CCN(CC)CCNC(=O)c1c(C)[nH]c(/C=C2\C(=O)Nc3ccc(F)cc32)c1C [Sunitinib] (1 nM)	109%
CC[C@@]1(O)C(=O)OCc2c1cc1n(c2=O)Cc2cc3c(CN(C)C)c(O)ccc3nc2-1 [Topotecan] (1 nM)	93.2%

Test system: CAL-51
Assay: as above
Conditions: incubation time: 72 h
Summary of the method: as §1

Structure (SMILES)	normalised response
Cc1c(Cn2c(C)nc3c(C(=O)O)cc(N4CCOCC4)cc32)cccc1C(F)(F)F (1000 nM)	74.1%
CCCCC/C=C/C=C1/C(=O)C=C[C@@H]1C/C=C\CCCC(=O)O [15D-PGJ2] (80 nM)	123%
CS(=O)(=O)N1CCN(Cc2cc3nc(-c4cccc5[nH]ncc45)nc(N4CCOCC4)c3s2)CC1 [Pictilisib] (1000 nM)	57.4%
